Measurements published in EP3474833B1, “CINNAMYL ALCOHOL DERIVATIVE FOR USE IN REDUCING APPETITE AND FOR GENERATING THE FEELING OF BEING FULL” (Symrise AG, priority 2016, dated 2017).

What follows are compounds tested on humane Neuroblastomazellen (SH-SY5Y, ATCC Nummer CRL-2266) (assay: Serotonin release in SH-SY5Y neuroblastoma cells (Serotonin-ELISA)). Details: SH-SY5Y-Zellen, 10 µM test substance, 5 min stimulation, Krebs-Ringer-HEPES Puffer pH 6,2; relative to 10 µM Nonivamid.
Type: cell-based, human
Method: Als Zellmodell für die Ausschüttung des Neurotransmitters Serotonin werden humane Neuroblastomazellen (SH-SY5Y, ATCC Nummer CRL-2266) verwendet. Die Kultivierung erfolgt bei 37 °C und 5 % CO2-Gehalt mit einer Mischung, die zu gleichen Teilen aus Eagle's Minimum Essential Medium (EMEM) und F12 Medium (jeweils mit 10 % FBS und 1 % Penicillin/Streptomycin) besteht. Zur Bestimmung der Serotoninfreisetzung werden die Zellen mit Trypsin geerntet und nach einer Vitalitätsprüfung durch Trypanblaufärbung in definierter Zellzahl in 24-well Platten (Corning cell culture treated) ausgesät.
Nach 5-minütiger Stimulierung von 90.000 humanen Neuroblastomazellen (SH SY5Y) mit 60 µl Krebs-Ringer-HEPES Puffer, 0,1 % Ascorbinsäure, pH 6,2, mit oder ohne Zusatz von 10 µM einer der Verbindungen 1-4, , bzw. 10 µM Nonivamid als Positivkontrolle wird der Serotoningehalt mit Hilfe eines enzymbasierten Nachweisverfahrens (Serotonin-ELISA sensitiv, DLD Diagnostica, Hamburg, Deutschland) ermittelt. Tabelle 1. Serotonin-Freisetzung in SH-SY5Y-Zellen nach Stimulierung mit je 10 µM von Verbindungen nach Formel I.

Point of comparison: `CCC(=O)OCC=Cc1ccccc1` [Verbindung 4, Cinnamylpropionat], “Serotoninfreisetzung [% der Positivkontrolle]” value 115.57 % der Positivkontrolle. Against it:
- CCCCCCCCC(=O)NCc1ccc(O)c(OC)c1 [Nonivamid, N-Nonanoylvanillylamin, reference compound] — lower, 100 % der Positivkontrolle
- OCC=Cc1ccccc1 [Verbindung 1, Cinnamylalkohol] — higher, 129.29 % der Positivkontrolle
- CC(C)C(=O)OCC=Cc1ccccc1 [Verbindung 6, Cinnamylisobutyrat] — higher, 120.69 % der Positivkontrolle
- CC(C)CC(=O)OC/C=C/c1ccccc1 [Verbindung 7, Cinnamylisovalerianat] — higher, 118.47 % der Positivkontrolle
- O=C(C=Cc1ccccc1)OCC=Cc1ccccc1 [Verbindung 11, Cinnamylcinnamat] — higher, 120.83 % der Positivkontrolle
